What was measured:
[1] = system: cAMP-linked metabotropic glutamate receptors; experiment: agonism of glutamate at cAMP-linked metabotropic glutamate receptors; assay type: cell-based; settings: result in words only
[2] = system: metabotropic glutamate receptors; experiment: displacement of 1S,3R-ACPD-sensitive [3H]glutamate binding to rat brain cell membranes; settings: crude membranes of rat forebrain
Protocol: The binding of [^3 H]glutamate was conducted with crude membranes of rat forebrain as described by Schoepp and True. Schoepp and True, Neuroscience Lett., 145, 100-104 (1992) and Wright et al., J. Neurochemistry 63:938-945 (1994).

Row | agonist activity at cAMP-linked metabotropic glutamate receptors [1] | IC50 [2] [nM] | Compound
1 | potent agonists | – | NC1(C(=O)O)COC2C(C(=O)O)C21 (single isomer, unassigned) [Example 2(g)]
2 | potent agonists | 55 | NC1(C(=O)O)COC2C(C(=O)O)C21 (stereo not drawn) [Example 1, 1SR,4SR,5RS,6SR-4-Amino-2-Oxabicyclo[3.1.0]hexane-4,6-dicarboxylic Acid]
3 | potent agonists | – | NC1(C(=O)O)CSC2C(C(=O)O)C21 (stereo not drawn) [Example 4, 1SR,4RS,5RS,6RS-4-Amino-2-Thiabicyclo[3.1.0]hexane-4,6-dicarboxylic Acid]

From patent US5688826A, “Excitatory amino acid derivatives” (Eli Lilly and Company, priority 1996, dated 1997)
